Experiments:
Assay type in all cases: in vivo, human
[1] = tested on: consumer panel (company employees); experiment: Sweetness perception threshold in neutral water (2-AFC); settings: n = 30
Text: Therefore we selected 50 ppm of PCS-3028 as the recognition threshold concentration. [table] This is a re-evaluation of the recognition threshold concentration to follow methodology outlined in section 1.4.2 of the “Guidance for the Sensory Testing of Flavorings with Modifying Properties within the FEMA GRAS™ Program”.

[2] = tested on: consumer panel (company employees); experiment: Sweetness perception threshold in lemon poppy seed muffin (2-AFC); settings: n = 30
Text: Additional threshold test data found for Lemon Poppy Seed Muffin provided in Appendix. [table] [table]

[3] = tested on: consumer panel (company employees); experiment: Sweetness perception threshold in puffed corn breakfast cereal (2-AFC)
Description: […] As recommended by the FEMA Sensory guidance document,—Guidance for the Sensory Testing of Flavorings with Modifying Properties, within the FEMA GRAS™ Program, 2013—the recognition threshold concentration was determined using 2-alternateve forced choice (2-AFC) methodology.
This is an evaluation of the recognition threshold concentration to follow methodology outlined in section 1.4.2 of the “Guidance for the Sensory Testing of Flavorings with Modifying Properties within the FEMA GRAS™ Program”.
Sample Preparation: The puffed corn cereal (with no added sugar or flavor) purchased from local stores and sprayed with aqueous sucrose solutions using a portable atomizer to create a fine mist while tumbling the dry cereal grains. All the samples were dried to remove the added water from the samples. About 3 g of cereal was portioned into appropriately labeled blind-coded plastic 2 oz soufflé cup with lids. Samples were served dry to all panelists.

[4] = 1.5% sucrose vs 30 ppm PCS-3028 in water
[5] = 1.5% sucrose vs 50 ppm PCS-3028 in water
[6] = 1.5% sucrose vs 70 ppm PCS-3028 in water
[7] = 4% sugar vs 70 ppm PCS3028 in muffins
[8] = 4% sugar vs 150 ppm PCS3028 in muffins
[9] = 4% sugar vs 250 ppm PCS3028 in muffins
[10] = Puffed Corn Cereal + vs + 250 ppm PCS-3028, n = 30

OC[C@H]1O[C@@](CO)(O[C@H]2O[C@H](CO)[C@@H](O)[C@H](O)[C@H]2O)[C@@H](O)[C@@H]1O [Sucrose]
% Frequency (sample named as sweeter) [1, 4]: 96.7%
PC (panelists naming the sample as sweeter) [1, 4]: 29
PC (panelists naming the sample as sweeter) [1, 5]: 21
Percent Frequency (sample named as sweeter) [1, 5]: 70.0%
% Frequency (sample named as sweeter) [1, 6]: 10%
PC (panelists naming the sample as sweeter) [1, 6]: 3
Frequency (sample named as sweeter) [2, 7]: 76.7%
PC (panelists naming the sample as sweeter) [2, 7]: 23
Frequency (sample named as sweeter) [2, 8]: 70%
PC (panelists naming the sample as sweeter) [2, 8]: 21
Frequency (sample named as sweeter) [2, 9]: 33.3%
PC (panelists naming the sample as sweeter) [2, 9]: 10
PC (panelists naming the sample as sweeter) ([3]; Puffed Corn Cereal + vs + 150 ppm PCS-3028, n = 30): 28
% Frequency (sample named as sweeter) ([3]; Puffed Corn Cereal + vs + 150 ppm PCS-3028, n = 30, listed as Sugar): 93.3%
% Frequency (sample named as sweeter) [3, 10]: 43.3%
PC (panelists naming the sample as sweeter) [3, 10]: 13

Reference: patent US12677848B2, “Stevia flavor compositions” (PURECIRCLE USA INC., priority 2019, dated 2026)
